Reference: patent EP4790048A1, “S1PR4 REGULATOR COMPOUND FOR AUTOIMMUNE DISEASE TREATMENT AND APPLICATION THEREOF” (Shengyuan Zetong (Shanghai) Pharmaceutical Co., Ltd, priority 2023, dated 2025)
Entries after “also recorded” stand apart in the source; their conditions may differ.

Experiments:
[1] = target: T1, hS1P1 (Homo sapiens, UniProt P21453); experiment: Tango β-arrestin recruitment luciferase assay, Tango-hS1P1-CHO; format: cell-based; details: β-arrestin recruitment; 20 h drug treatment; top 45 µM, 9 serial 5-fold dilutions; positive control 1 µM BAF-312; read-out: Tango-hS1P1-CHO EC50
T1 construct: expressed in transfected cells; host or cells: CHO
From the text: (§1) The Tango assay detects ligand-dependent GPCR activity through the interaction between β-arrestin and GPCRs. […] The NTEV fragment and the tetracycline transactivator (tTA), an artificial transcription factor, are fused at the C-terminus of the GPCR, while the CTEV fragment is fused to human β-arrestin 2. To enhance the stability of the interaction between GPCR and β-arrestin, a short sequence from the C-terminus of the human arginine vasopressin receptor 2 (V2 tail) is inserted between the GPCR and NTEV. The V2 tail contains multiple GRK phosphorylation sites, which strengthen β-arrestin binding upon phosphorylation. The CTEV fragment carries the stabile point mutation S219P and is truncated at residue 221 to remove the autoinhibitory C-terminal tail. Meanwhile, β-arrestin 2 is truncated to lack the entire C-terminal tail (residues 383-410 deleted). This truncation confers robust stimulus-dependent receptor desensitization, thereby improving detection sensitivity compared with wild-type β-arrestin 2. The UAS reporter construct consists of upstream activating sequence (UAS) elements, a minimal CMV promoter, and a tTA-dependent luciferase reporter gene. Therefore, constructing Tango cells requires the co-transfection of the above three plasmids into host cells. Upon GPCR activation and β-arrestin recruitment, the TEV enzyme at the β-arrestin terminus cleaves tTA from the GPCR C-terminus. The released tTA initiates tTA-dependent luciferase transcription, and compound activity is ultimately determined by measuring luminescence intensity.
(§2) • 1) Tango cell line from was digested from the culture dish respectively. After cell counting, the cells were plated at a density of 10,000 cells per well with […] into a white opaque 96-well plate (add 60 µL D'Hanks to the surrounding wells), and incubated overnight (20 h) in a 5% CO2 incubator at 37°C. The cell density will reach approximately 90% the next day. • 2) After 20 h, 30 µL of serially diluted compound solution was added to each well. The control group was supplemented with 30 µL F12K complete medium. Each group had three replicate wells. • 3) Samples were collected after 20 h of drug treatment.
(§3) (All compounds were tested at a final concentration of 45 µM, with 9 serial dilutions at 5-fold intervals. 1 µM BAF-312 was used as the positive control for S1PR1, and 25 µM BAF-312 was used as the positive control for S1PR4.

[2] = target: T2, hS1P4 (Homo sapiens, UniProt O95977); experiment: Tango β-arrestin recruitment luciferase assay, Tango-hS1P4-CHO; format: cell-based; details: β-arrestin recruitment; 20 h drug treatment; top 45 µM, 9 serial 5-fold dilutions; positive control 25 µM BAF-312; read-out: Tango-hS1P4-CHO EC50
T2 construct: expressed in transfected cells; host or cells: CHO
T2 sequence (O95977 1-384): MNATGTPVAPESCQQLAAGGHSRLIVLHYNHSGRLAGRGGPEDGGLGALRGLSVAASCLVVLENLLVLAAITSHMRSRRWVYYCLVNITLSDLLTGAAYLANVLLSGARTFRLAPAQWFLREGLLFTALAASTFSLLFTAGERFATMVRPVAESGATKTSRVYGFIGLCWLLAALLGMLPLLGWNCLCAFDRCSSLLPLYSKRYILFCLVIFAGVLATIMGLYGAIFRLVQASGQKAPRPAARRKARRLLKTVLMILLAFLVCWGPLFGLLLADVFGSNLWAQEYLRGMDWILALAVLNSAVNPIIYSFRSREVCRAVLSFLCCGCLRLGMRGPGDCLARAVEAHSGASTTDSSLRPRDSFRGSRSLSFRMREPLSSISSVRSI
From the text: as §1, §2, §3

[3] = tested on: BALB/c mice; experiment: DSS-induced chronic ulcerative colitis in mice (Example 6); format: in vivo
From the text: BALB/c mice were acclimatized for 7 days before the experiment. From Day 7 to Day 50 of the experiment, the mice were weighed daily and their blood and stool conditions were observed, scored and recorded according to the following table (Table 1). After random grouping, all groups except the Control group were given free access to 2-3% DSS solution for modeling from Day 7 to Day 14, while the Control group received normal drinking water during the same period. One cycle lasted 14 days and was repeated 3 times. Re-grouping was performed at the start of the final cycle to initiate drug administration. The Control group and Model group received no drug but the same solvent. The other groups were intragastrically administered 1 mg/kg, 3 mg/kg, 9 mg/kg, and SASP 500 mg/kg respectively. On Day 45, blood and colon samples were collected, colon length was measured, and a 1-2 cm colon segment was fixed with formaldehyde.
(§4) • BALB/c mice, male, 20-22 g • Dextran sulfate sodium MW: 36,000-50,000 (DSS) • 30 1 mg/kg, 3 mg/kg, 9 mg/kg, SASP (500 mg/kg) indicators were observed.
(§5) (1) Clinical Symptom Score: The mice were weighed daily and their blood and stool were observed during the experiment for DAI scoring, which was graded and recorded according to the following table (Table 1).
(§6) (2) After the experiment, the colon was removed, its length measured and weight recorded. The colon-to-body weight index (colon weight/body weight × 100%) and colon swelling rate (colon weight/length × 100%) were calculated.
(§7) Colonic tissue approximately 1 cm from the anal margin (0.5 cm) and ileocecal region tissue were collected for histopathological examination. After H&E staining, the tissues were scored under single-blind conditions to evaluate the level of distal colon inflammation and tissue damage; scoring was performed according to the Ameho criteria and calculated as follows: • Score 0: No abnormal findings in the texture. • Score 1: Mild inflammatory infiltration of the mucosa and/or submucosa (mixed with neutrophils), submucosal edema, punctate mucosal erosion, accompanied by capillary proliferation. The muscularis mucosae is intact. • Score 2: Changes of Score 1 account for more than 50%. • Score 3: Obvious inflammatory infiltration and edema (neutrophils are often predominant); ulcers usually penetrate the muscularis mucosae to reach the submucosa. There is little inflammatory cell infiltration in the muscularis propria and no muscle necrosis. • Score 4: Changes of Score 3 account for more than 50%. • Score 5: Large confluent ulcers with coagulative necrosis, massive neutrophil infiltration at the margins and few monocytes. Necrotic tissue penetrates the muscularis propria. • Score 6: Changes of Score 5 account for more than 50% of the specimen.
The fence function of Occludin separates the apical and basolateral sides of the epithelial cell plasma membrane, restricting the free flow of lipids on the cell membrane, facilitating the formation of cell polarity, maintaining the impermeability and rigidity of the intestinal mucosa, and preventing the entry of pathogenic microorganisms. The barrier function of Occludin can regulate the transport of small molecules and maintain tissue homeostasis. The expression and distribution of related proteins are detected by immunohistochemistry.
During modeling, the body weight of mice in the control group increased steadily. In the model group, during the first modeling period, mice were given 3% DSS drinking water ad libitum for 7 days, followed by tap water ad libitum for 7 days. On Day 4 of modeling, the body weight of mice began to decrease generally, reaching the lowest point on Day 8, and then started to rise. During the second modeling period, mice were given 2% DSS drinking water ad libitum for 7 days, followed by tap water ad libitum for 7 days. […]

[4] = tested on: BALB/c mice; experiment: DSS-induced acute ulcerative colitis in mice (Example 6); format: in vivo
Procedure: From Day 0 to Day 14 of the experiment, the mice were weighed daily and their blood and stool conditions were observed, scored and recorded according to the following table (Table 1). Random grouping was performed on Day 1, and modeling was conducted from Day 1 to Day 7. All groups except the Control group were given 3.5% DSS water daily. Re-grouping was performed on Day 8. The Control group and Model group received no medication and were given tap water; the other groups were administered intragastrically with 1 mg/kg, 3 mg/kg, 9 mg/kg, and SASP (Sulfasalazine or Salicylazosulfapyridine) 500 mg/kg, respectively. On Day 15, blood and colon samples were collected, colon length was measured, and a 1-2 cm segment of the colon was fixed with formaldehyde.
as §4, §5, §6, §7
The fence function of Occludin separates the apical and basolateral sides of the epithelial cell plasma membrane, restricting the free flow of lipids on the cell membrane, facilitating the formation of cell polarity, maintaining the impermeability and rigidity of the intestinal mucosa, and preventing the entry of pathogenic microorganisms. The barrier function of Occludin can regulate the transport of small molecules and maintain tissue homeostasis. […]

[5] = tested on: SD rats; experiment: MIA-induced osteoarthritis (OA) model in rats; format: in vivo
Procedure: SD rats, approximately 200 g, male. Purchased from Shanghai Bikai Animal Co., Ltd. Adaptive feeding was conducted for about 7 days.
3.1.1 Anesthesia: the rat was placed into the anesthesia box, the O2 gas source and the gas delivery pump were turned on, and the gas adjustment knob was rotated to set the ratio of O2 to isoflurane at 8:2. The anesthesia depth knob was adjusted: first the indicator was turned to 3 to induce deep anesthesia in the rat; during the subsequent surgical procedure, the indicator was adjusted to 1.5 to maintain anesthesia. The three-way valve was opened to deliver gas into both the anesthesia box and the rat anesthesia mask.
The syringe needle was inserted at a 45° angle to the plateau along the lateral side of the patellar ligament, as shown in the figure below. The Control group is injected with 50 µl of 0.9% sterile normal saline, while the other groups are injected with 50 µl of sterile normal saline containing 3 mg of MIA. After the procedure, the rat was removed, placed in a breeding cage, and irradiated with an incandescent lamp to help restore body temperature until the rat recovers from anesthesia.
The Control group was administered 5% DMSO + 35% PEG400 + 60% normal saline. The compounds were dissolved in a system consisting of 5% dimethyl sulfoxide (DMSO), 35% polyethylene glycol 400 (PEG 400), and 60% normal saline. The drug solutions were prepared on the evening one day before administration.
The rats were acclimated for 1 week and randomly divided into groups, with a total of 10 rats. The Control group was administered 5% DMSO + 35% PEG400 + 60% normal saline, while the other groups were given the test compounds dissolved in 5% DMSO + 35% PEG400 + 60% normal saline.
3.4.1. From Day 1 to Day 14 of the experiment, the rats were administered intragastrically once daily, with a gavage volume of 5 mL/kg. The Control group and Model group were given 5% DMSO + 35% PEG400 + 60% normal saline throughout the experiment, while the other groups were administered the corresponding drugs.
On Day 7 and Day14 of the experiment, behavioral and joint pain tests were performed on the rats. To minimize confounding factors, the tests were conducted 1 hour after administration at a fixed time, preventing variations in the rats' condition at different time points from affecting the experimental results. The rats were allowed to acclimate to the environment for 20 minutes before the start of the experiment. • (1) Observation of walking distance and rearing times within five minutes: the dimensions of the resin box were measured and a paper sheet of the corresponding size was prepared. 1 cm × 1 cm grids were drawn on the paper sheet. The paper sheet was sealed with a transparent tape to prevent damage from rat excrement. Then the paper sheet with 1 cm × 1 cm grids was placed into the transparent resin box, ensuring a flat bottom. A camera device was used to record the walking process and trajectory of the rat within 5 minutes, and the walking distance and rearing times of the rat were counted. • (2) Joint Pain Assessment: After fixing the rat and allowing it to calm down, its knee joint was gently bent. […] The knee joint pain severity in rats is reflected by the scores of leg withdrawal and vocalization. The joint pain assessment was performed every 5 seconds for a total of 5 times.
On Day 15 of the experiment, the rats were anesthetized, and blood was collected from their eyeballs. The serum was left to stand overnight at 4°C, centrifuged at 3600 rpm for 15 minutes at 4°C. The serum was aspirated and stored at -80°C. The rats were sacrificed by cervical dislocation. An incision was made along the knee joint on ice to remove fur, muscle, and other tissues. For each group, 5 rats were used; bilateral knee joints were dissected, and the color, roughness, and integrity of the femoral condyle surface were observed. The knee joint cartilage was then harvested and cryopreserved at -80°C. […]

[6] = DAY7, diclofenac sodium 2.5 mg/kg, vs Model group

T1 sequence (P21453 whole entry): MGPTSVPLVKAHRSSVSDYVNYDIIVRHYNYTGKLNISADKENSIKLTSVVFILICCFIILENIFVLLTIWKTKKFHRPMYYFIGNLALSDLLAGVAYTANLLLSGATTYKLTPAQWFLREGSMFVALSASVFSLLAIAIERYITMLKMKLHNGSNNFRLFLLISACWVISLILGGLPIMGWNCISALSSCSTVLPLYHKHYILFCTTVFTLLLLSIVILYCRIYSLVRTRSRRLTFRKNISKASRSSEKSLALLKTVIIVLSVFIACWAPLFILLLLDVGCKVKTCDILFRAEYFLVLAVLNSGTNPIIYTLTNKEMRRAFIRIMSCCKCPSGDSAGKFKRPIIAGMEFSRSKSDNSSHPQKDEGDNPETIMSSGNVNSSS

## CCc1cc(/C(C)=N/OCc2ccc(-c3cnc(F)cn3)c(C)c2)ccc1CN1CCCC(C(=O)O)C1 (centres unmarked) [Compound 92, (E)-1-(2-ethyl-4-(1-(((3-methyl-4-(5-fluoropyrazin-2-yl)-benzyl)oxy)imino)ethyl)benzyl)piperidine-3-carboxylic acid]
[1]
  EC50: > 10 µM
[2]
  EC50: > 10 µM

## O=C(O)c1cc(/N=N/c2ccc(S(=O)(=O)Nc3ccccn3)cc2)ccc1O [SASP, Sulfasalazine, reference compound]
[3]; 30 treatment group, SASP 500 mg/kg, vs model group
  daily DAI score: decreased more rapidly
[3]; 30 treatment groups (1, 3, 9 mg/kg), SASP 500 mg/kg, vs model group
  body weight recovery: recovered rapidly and increased substantially
[3]; SASP 500 mg/kg
  colon pathological changes (H&E staining): inflammatory cell infiltration, but to a lesser extent than the Model group
[3]; vs Model group
  Occludin expression in colonic mucosa (immunohistochemistry): the expression of Occludin was increased
[4]; 30 at 3 mg/kg, SASP at 500 mg/kg, vs model group
  body weight recovery: faster body weight recovery with a greater rebound amplitude
[4]; 30 treatment groups, SASP 500 mg/kg, vs model group
  daily DAI score: decreased more rapidly
[4]; SASP 500 mg/kg
  colon pathological changes (H&E staining): still had inflammatory cell infiltration, but to a lesser extent than the Model group
[4]; SASP 500 mg/kg intragastric from Day 8, 8 mice, model group 75%
  survival rate: 87.5%
[4]; vs Model group
  Occludin expression in colonic mucosa (immunohistochemistry): the expression of Occludin was increased

## O=C(O)Cc1ccccc1Nc1c(Cl)cccc1Cl [diclofenac sodium, reference compound]
[5]; [6]
  five-minute walking distance: increased significantly
  pain index: significantly decreased
[5]; Day 15 dissection, 5 rats per group
  gross observation of knee joint femoral condyle cartilage: knee cartilage in most rats became smooth and glossy; also recorded: cartilage of most rat knee joints became smooth and bright
[5]; Elisa, vs Model group
  serum IL-10 level: significantly increased
[5]; diclofenac sodium 2.5 mg/kg, vs Model group
  OARSI score (severity of knee osteoarthritis): significantly milder than that in the Model group
[5]; vs Model group
  Safranin O-Fast Green staining of knee joints: enhanced Safranin O staining
